The source of these data is US8742121B2, “Process for the preparation of small molecule inhibitors of MDM2 and intermediates used therein” (The Regents of the University of Michigan, priority 2005, dated 2014).

In test [1] the test system is LNCaP prostate cancer cells (p53 wild-type). The experiment in a line: WST-8 cell growth inhibition assay, LNCaP. To be noted: Homo sapiens, 96 h. The format is cell-based. For orientation: Tetrazolium dyes change colour on reduction, which living cells bring about.
Test [2] has as its target T1, recombinant human MDM2 protein (residues 1-118, His-tag) (Homo sapiens, UniProt Q00987).
T1 construct: The recombinant MDM2 human protein (residues 1-118) fused to His-tag at the N terminus; His-tag (N)
The experiment in a line: Fluorescence polarization (FP)-based competitive binding assay with PMDM6-F probe. The conditions noted are these: for Ki: competition with PMDM6-F, FIG. 4B/5. Background: Fluorescence polarisation rises when a labelled molecule tumbles more slowly, as on binding a larger partner.

For test [3], the system named is PC-3 prostate cancer cells (p53 null). The experiment in a line: WST-8 cell growth inhibition assay, PC-3.
The subject of test [4] is normal human prostate epithelial cells (PrEC) with wild-type p53. As to the kind of experiment: WST-8 cell growth inhibition assay, PrEC. The format is cell-based.
Test [5] deals with RKO (wild-type p53) colon cancer cells. As to the kind of experiment: Cell death (trypan blue) and apoptosis (sub-diploid DNA, PI staining). The format is cell-based. The conditions noted are these: 4 days; RKO compared with HT-29 and CCD-18Co, FIG. 13. The method, then: RKO (wild-type p53) and HT-29 (mutant p53) colon cancer cell lines and CCD-18Co normal colon fibroblast cells were treated with increasing doses of Ke-43 or Ke-61 for 4 days in 6-well Petri dishes. Trypan blue dye exclusion assays were performed to determine the ability of the inhibitors to induce cell death. After 4 days of treatment, floating and adherent cells were harvested and stained with 0.2% of trypan blue solution (Sigma, St Louis, Mo.). Each treatment was performed in triplicate and at least 100 cells were counted. Cells stained blue or morphologically unhealthy cells were scored as dead cells. To evaluate apoptosis, sub-diploid DNA content in cells treated with or without test inhibitors was analyzed by propidium iodide (PI) staining After washing once with cold PBS, cells were fixed in 70% ethanol for 1 day at −20° C. Ethanol-fixed cells were then washed twice with PBS and stained with a staining solution containing propidium iodide (PI) at 50 ng/ml and RNAse A at 100 ng/ml in PBS, for 20 minutes in dark at room temperature. Acquisition of cells and analysis of sub-diploid DNA content was performed by flow cytometry using CellQuest software.

Test [6] relates to HT-29 (mutant p53) colon cancer cells. The experiment in a line: Cell cycle progression (BrdU/7-AAD flow cytometry), HT-29. The format is cell-based. To be noted: HT-29, 22 + 2 hours, FIG. 14. The method, then:
(§1) Cell cycle progression was evaluated in RKO (wild-type p53) and HT-29 (mutant p53) colon cancer cell lines and CCD-18Co normal colon fibroblast cells by determining S-phase cells by incorporation of bromodeoxyuridine (BrdU) followed by staining with FITC-labeled anti-BrdU antibody and the total DNA-content by staining with 7-aminoactinomycin D (7-AAD) according to manufacturer's instructions (BD Biosciences, San Jose, Calif.). Briefly, cancer and normal cells, after overnight incubation, were treated with out test compounds for 22 hours, followed by an additional 2 hours of incubation with 10 μM of BrdU. Cells were harvested, fixed and stained with FITC-labeled anti-BrdU and 7-AAD. Cell cycle distribution was analyzed by flow cytometry. Cells were acquired and data analyzed by using CellQuest software (BD Biosciences).
(A flow cytometer gives signals particle by particle.)

For another test, the target named is T2, p53-MDM2 interaction (Homo sapiens, UniProt Q00987).
T2 construct: endogenous in cells; host or cells: HCT116 colon cancer cells (lysate)
As to the kind of experiment: Co-immunoprecipitation/Western blotting of p53-MDM2 interaction in HCT116 lysates. The format is biochemical. The conditions noted are these: increasing concentrations, 1 h at 4° C., FIG. 10. On the procedure: Co-immunoprecipitation (Co-IP)/Western blotting assays were performed to assess the effects of Ke-43 on p53-MDM2 interaction. After harvesting and washing once with cold PBS, HCT116 colon cancer cells were lysed by sonication in cold Co-IP buffer (50 mM Tris (pH 7.5), 150 mM NaCl, 1 mM EDTA (pH 8.0), 0.5% NP-40) containing 1 mM phenylmethylsulfonyl fluoride and protease inhibitor cocktail. Sonicated lysates were then centrifuged at 12,000×g at 4° C. for 15 minutes. Supernatant containing 2 mg protein was incubated in the absence or presence of Ke-43 for 1 h at 4° C., followed by addition agarose beads, conjugated either with anti-p53 antibody (FL-393, Santa Cruz) or with a non-specific antibody. After mixing for 2 h at 4° C., the agarose beads were washed 3 times with cold Co-IP buffer, boiled in sample buffer followed by SDS-PAGE and the presence of p53 and MDM2 was detected by Western blotting with mouse monoclonal antibodies against p53 and MDM-2 proteins.

Test [7] relates to HCT116 (wild-type p53) colon cancer cells. The experiment in a line: WST-8 cell growth inhibition assay, HCT116. The format is cell-based.
Test [8] relates to RKO (wild-type p53) colon cancer cells. As to the kind of experiment: WST-8 cell growth inhibition assay, RKO. The format is cell-based.
Test [9] shares this test system. As to the kind of experiment: Cell cycle progression (BrdU/7-AAD flow cytometry), RKO. The format is cell-based. The conditions noted are these: 22 + 2 hours, FIG. 14. On the procedure: as §1
Test [10] relates to p53, MDM2 and p21 expression in RKO (wild-type p53) cells. As to the kind of experiment: Western blot of p53 and its target gene products MDM2 and p21. The format is cell-based. To be noted: 24 hours; RKO compared with HT-29 (mutant p53), FIG. 12. On the procedure:
Cancer cells were treated with test compounds or 0.1% DMSO for 24 hours. Cells were harvested by trypsinization and washed with cold phosphate buffer saline, pH 7.5 (Invitrogen, Carlsbad, Calif.). Cells were lysed for 30 minutes in ice-cold lysis buffer (50 mM Tris (pH 7.5), 150 mM NaCl, 1 mM EDTA (pH 8.0), 25 mM sodium fluoride, 1% NP-40 and 0.1% SDS) containing 2 mM sodium orthovanadate, 1 mM phenylmethylsulfonyl fluoride and protease inhibitor cocktail (Roche Applied Science, Indianapolis, Ind.). Next, cell extracts were centrifuged at 12,000×g at 4° C. for 10 minutes to obtain clarified lysates. Protein was estimated by Bio-Rad dye. Cell lysates containing […] protein were resolved on a 4-20% tris-glycine gel (Invitrogen, Carlsbad, Calif.) and transferred onto poly(vinylidene difluoride) membranes. Immunodetection of proteins on the transfer membrane was performed by using anti-p53 (Ab-6, Oncogene Research Products, Boston, Mass.), anti-MDM2 (SMP14, Santa Cruz Biotechnology, Santa Cruz, Calif.) and anti-p21 (BD Biosciences, San Diego, Calif.) mouse monoclonal antibodies. Antibody to β-actin (Sigma, St Louis, Mo.) was used to assess the protein loading.

Test [11] concerns CCD-18Co normal colon fibroblast cells. The experiment in a line: Cell cycle progression (BrdU/7-AAD flow cytometry), CCD-18Co. The format is cell-based. The conditions noted are these: 22 + 2 hours, FIG. 14. On the procedure:
as §1

The subject of test [12] is PrEC normal prostate epithelial cells. The experiment in a line: Protection of normal cells from TAXOL (trypan blue viability). The format is cell-based, human. The conditions noted are these: pretreatment 1 μM and 2.5 μM for 24 hours, then 1 μM TAXOL for 2 days, FIG. 15. The method, then:
PrEC normal prostate epithelial cells were seeded in 6 well pates and incubated with Ke-63 (1 μM and 2.5 μM) for 24 hours, then 1 μM TAXOL (paclitaxel) was added for 2 days. Trypan blue was used to determine cell viability.

Setting [13] is: 4 days, FIG. 6, read-out: IC50 inhibition of cell growth.

Read-outs that look alike come from different tables or passages of the source.

What is called IC50 is the point on the concentration scale where inhibition reaches its midpoint. The Ki is a dissociation constant, usually derived from enzyme kinetics or from competition with a known ligand. For `CC(C)C[C@H]1N[C@@H](C(=O)N(C)C)[C@H](c2cccc(Cl)c2)[C@@]12C(=O)Nc1cc(Cl)ccc12` [Example 1b, (2′R,3S,4′R,5′R) 6-Chloro-4′-(3-Chloro-Phenyl)-2′-Isobutyl-2-Oxo-1,2-Dihydro-Spiro[Indole-3,3′-Pyrrolidine]-5′-Carboxylic Acid Dimethylamide], the IC50 in test [1] (setting [13]) was 2.1 µM. For the same molecule, in [2], the Ki is 0.3 µM. In test [2] (relative to 1a), the “times more potent than 1a (Ki)” value worked out at 28 times.

`CC(C)C[C@H]1N[C@@H](C(=O)N(C)C)[C@H](c2ccc(Cl)cc2)[C@@]12C(=O)Nc1cc(Cl)ccc12` [Example 1c, (2′R,3S,4′R,5′R) 6-Chloro-4′-(4-Chloro-Phenyl)-2′-Isobutyl-2-Oxo-1,2-Dihydro-Spiro[Indole-3,3′-Pyrrolidine]-5′-Carboxylic Acid Dimethylamide]: the Ki in test [2] stood at 7.7 µM. For the same molecule, the “times less potent than 1b (Ki)” value in test [2] (relative to 1b) amounted to 26 times.

As for `CN(C)C(=O)[C@@H]1N[C@H](CC(C)(C)C)[C@]2(C(=O)Nc3cc(Cl)ccc32)[C@H]1c1cccc(Cl)c1` [Example 1d, (2′R,3S,4′R,5′R) 6-Chloro-4′-(3-Chloro-Phenyl)-2-Oxo-2′-(2,2-Dimethylpropyl)-1,2-Dihydro-Spiro[Indole-3,3′-Pyrrolidine]-5′-Carboxylic Acid Dimethylamide], the IC50 was 22.5 µM in test [3] (Homo sapiens, 96 h, read-out: IC50 inhibition of cell growth); 0.83 µM in [1] (read-out: IC50 inhibition of cell growth); 6 µM in test [4] (Homo sapiens, 96 h, PrEC, 4 days, FIG. 8). Further, the “times less active in PC-3 cells than in LNCaP cells” value in [3] (PC-3 versus LNCaP) turned out to be 27 times. Also, the “times less potent in PrEC cells than in LNCaP cells” value in test [4] (PrEC versus LNCaP) was 13 times.

As to `CCC[C@H]1N[C@@H](C(=O)N(C)C)[C@H](c2cccc(Cl)c2)[C@@]12C(=O)Nc1cc(Cl)ccc12` [Example 1e, (2′R,3S,4′R,5′R) 6-Chloro-4′-(3-Chloro-Phenyl)-2-Oxo-2′-Propyl-1,2-Dihydro-Spiro[Indole-3,3′-Pyrrolidine]-5′-Carboxylic Acid Dimethylamide], the IC50 in test [1] (setting [13]) came to 2.7 µM. In test [2], the Ki stood at 0.65 µM.

With `CC(C)CC[C@H]1N[C@@H](C(=O)N(C)C)[C@H](c2cccc(Cl)c2)[C@@]12C(=O)Nc1cc(Cl)ccc12` [Example 1f, (2′R,3S,4′R,5′R) 6-Chloro-4′-(3-Chloro-Phenyl)-2′-(3-Methyl-Butyl)-2-Oxo-1,2-Dihydro-Spiro[Indole-3,3′-Pyrrolidine]-5′-Carboxylic Acid Dimethylamide], the IC50 in [1] (setting [13]) was determined as 1.9 µM. The Ki in test [2] came to 0.39 µM.

`CC(C)(C)C[C@H]1N[C@@H](C(=O)NCCN2CCOCC2)[C@H](c2cccc(Br)c2)[C@@]12C(=O)Nc1cc(Cl)ccc12` [Ke-43, (2′R,3S,4′R,5′R) 6-Chloro-4′-(3-Bromo-Phenyl)-2′-(2,2-Dimethyl-Propyl)-2-Oxo-1,2-Dihydro-Spiro[Indole-3,3′-Pyrrolidine]-5′-Carboxylic Acid (2-Morpholin-4-yl-Ethyl)-Amide]: the apoptosis entry in test [5] is “Only cancer cells expressing wild-type p53 underwent apoptosis”. For the same molecule, in test [6], the cell cycle progression entry is given as “no appreciable effect on cell cycle progression”. In addition, the “immunoprecipitation of MDM2 by anti-p53 antibody” value at p53-MDM2 interaction is “disrupts the interaction between p53 and MDM2”. Besides, the growth inhibitory activity entry in test [7] (HCT116, 4 days, FIG. 11) was “potent growth inhibitory activity”; in test [8] (RKO, 4 days, FIG. 11) it was “potent growth inhibitory activity”. The “specificity over cancer cells expressing mutant p53 (HT-29)” value in [7] (HCT116 versus HT-29) is reported as “greater than 18 fold”; in test [8] (RKO versus HT-29) it was “greater than 13 fold”. In addition, the “Ki values (in words)” value in test [2] (Example 132, FIG. 9, more potent than the natural p53 peptide) is “low nM to sub-nM range”. In addition, the “S-phase / cell cycle progression” value in test [9] and in test [11] was “dose-dependent depletion of S-phase” in each case. For the same molecule, the “accumulation of p53 and its target gene-products” value in [10] is “induced accumulation of p53 and its target gene-products only in RKO cells expressing wild-type p53”.

`COc1ccc2c(c1)NC(=O)[C@]21[C@@H](CC(C)(C)C)N[C@@H](C(=O)N(C)C)[C@@H]1c1cccc(Br)c1` [Ke-61, (2′R,3S,4′R,5′R) 4′-(3-Bromo-Phenyl)-2′-(2,2-Dimethyl-Propyl)-6-Methoxy-2-Oxo-1,2-Dihydro-Spiro[Indole-3,3′-Pyrrolidine]-5′-Carboxylic Acid Dimethylamide]: the cell cycle progression entry in test [6] is given as “did not have a significant effect”. The “S-phase / cell cycle progression” value in [9] and in test [11] was “did not have a significant effect” throughout.

For `CC(C)(C)C[C@H]1N[C@@H](C(=O)NCCN2CCOCC2)[C@H](c2cccc(Cl)c2F)[C@@]12C(=O)Nc1cc(Cl)ccc12` [Ke-63, (2′R,3S,4S,5′R) 6-Chloro-4′-(3-Chloro-2-Fluoro-Phenyl)-2′-(2,2-Dimethyl-Propyl)-2-Oxo-1,2-Dihydro-Spiro[Indole-3,3′-Pyrrolidine]-5′-Carboxylic Acid (2-Morpholin-4-yl-Ethyl)-Amide], in [12], the “protection of cells from TAXOL (cell viability)” value is “cells were protected from TAXOL”.
